Test results from patent EP1591107A1, “Process for the selective increase of a release rate of an active material from a pharmaceutical composition” (Pfizer GmbH Arzneimittelwerk Gödecke, priority 2004, dated 2005).
Values after ≈ are worked out from the molar mass of the structure shown. Counter-ions that a name gives are not always drawn. Like-named read-outs stand apart in the source and are kept apart here.

Tests used:
[1] = in water, classification taken from the European Pharmacopoeia, cited from earlier work
[2] = Solubility in water (European Pharmacopoeia solubility classes)

| SMILES | solubility class according to the European Pharmacopoeia ([1]; hydrochloride) | solubility class according to the European Pharmacopoeia ([1]; listed as Diltiazem® hydrochloride, hydrochloride) | solubility class according to the European Pharmacopoeia [1] | volume of water in which 1 g is soluble ([2]; 1 g of active material, water) [mL] | solubility class according to the definition of the European Pharmacopoeia ([2]; class derived from the printed solubility in water) | solubility ([2]; water) [mg/mL] |
| --- | --- | --- | --- | --- | --- | --- |
| COc1ccc([C@@H]2Sc3ccccc3N(CCN(C)C)C(=O)[C@@H]2OC(C)=O)cc1 [diltiazem hydrochloride] | freely soluble | very soluble | – | – | – | – |
| CC(C)C[C@H](CN)CC(=O)O [pregabalin] | – | – | sparingly soluble | 31 | sparingly soluble | 32.1 (≈ 202 mM) |
